“And” between values parts separate entries of the source, which are not always exact repeats. Equal entries are not always repeated.
Legend:
Ishikawa cells = assay: Ishikawa Cell Alkaline Phosphatase Assay; format: cell-based, human; conditions: compound alone; percent of response related to 1 nM 17β-estradiol; 48 h
Protocol: Ishikawa Cell Alkaline Phosphatase Assay Cell Maintenance and Treatment: […] Cells were treated for 48 h prior to assay. […] Sample population for at each dose was n=8. Alkaline Phosphatase Assay: […] Plates are placed at -80° C. for a minimum of 15 minutes. Plates are thawed at 37° C. followed by the addition of 150 μL of 0.1 M Tris-HCl, pH 9.8, containing 4 mM para-nitrophenylphosphate (pNPP) to each well (final concentration, 3 mM pNPP). Absorbance and slope calculations were made using the […] Application program (Bio-Tek Instruments, Inc., Winooski, VT.). […] Various compounds were assayed for estrogenic activity by the alkaline phosphatase method and corresponding ED50 values (95% C.I.) were calculated. The four listed in the following were used as as reference standards: A description of these methods is described by Holinka, […]., Kuramoto, H. and Gurpide, E. (1986) Effects of steroid hormones and antisteroids on alkaline phosphatase activity in human endometrial cancer cells (Ishikawa Line). Cancer Research, 46:2771-2774, and by […]. and […] simple and sensitive microtiter plate estrogen bioassay based on stimulation alkaline phosphatase in Ishikawa cells; […] Endocrinology, 6:2757-2762.

[1] = test system: uterus wet weight, immature Sprague-Dawley rats; assay: Rat Uterotrophic/Antiuterotrophic Bioassay; format: in vivo; conditions: day 4; for uterine wet weight, 10 μG: 10 uG compound daily ip; for uterine wet weight, 10 μG / uterine wet weight, 100 μG / uterine wet weight, 100 μG + 1 μG 17β-estradiol: immature female rats; for uterine wet weight, 100 μG: 100 uG compound daily ip; for uterine wet weight, 100 μG + 1 μG 17β-estradiol: 100 uG compound + 1 uG 17β-estradiol daily ip
Protocol: Rat Uterotrophic/Antiuterotrophic Bioassay The estrogenic and antiestrogenic properties of the compounds were determined in an immature rat uterotrophic assay (4 day) that (as described previously by L. J. Black and R. L. Goode, Life Sciences, 26, 1453 (1980)). Immature Sprague-Dawley rats (female, 18 days old) were tested in groups of six. […] A small section of one horn was submitted for histology and the remainder used to isolate total RNA in order to evaluate complement component 3 gene expression.

estrogen receptor = biological target: T1, estrogen receptor (Homo sapiens, UniProt P03372); assay: In Vitro Estrogen Receptor Binding Assay ([3H]-17β-estradiol competition); conditions: RBA: 17β-estradiol=100; cytosol of CHO cells overexpressing the estrogen receptor
T1 construct: expressed in transfected cells; host or cells: CHO cells, ribosome-free cytosol
T1 sequence (P03372 1-595): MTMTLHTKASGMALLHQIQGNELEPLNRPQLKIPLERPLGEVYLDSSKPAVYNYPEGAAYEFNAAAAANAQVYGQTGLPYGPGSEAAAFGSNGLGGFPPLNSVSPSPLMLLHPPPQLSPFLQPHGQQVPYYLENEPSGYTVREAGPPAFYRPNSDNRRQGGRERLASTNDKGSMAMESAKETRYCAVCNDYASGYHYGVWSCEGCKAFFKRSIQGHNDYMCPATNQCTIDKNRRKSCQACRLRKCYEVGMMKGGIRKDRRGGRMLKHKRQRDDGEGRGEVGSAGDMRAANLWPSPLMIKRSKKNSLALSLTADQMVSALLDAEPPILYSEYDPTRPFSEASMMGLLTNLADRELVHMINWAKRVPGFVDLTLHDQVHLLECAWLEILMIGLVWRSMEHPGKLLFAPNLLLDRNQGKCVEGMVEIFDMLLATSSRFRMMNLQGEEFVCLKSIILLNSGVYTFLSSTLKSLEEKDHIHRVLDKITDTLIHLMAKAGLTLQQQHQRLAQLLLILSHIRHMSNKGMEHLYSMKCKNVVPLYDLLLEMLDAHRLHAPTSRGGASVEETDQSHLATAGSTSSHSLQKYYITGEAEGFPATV

SMILES | melting point [°C] | % Activation (Ishikawa cells) [%] | uterine wet weight, 10 μG [1] [mg] | uterine wet weight, 100 μG [1] [mg] | Estrogen Receptor Affinity (RBA) (estrogen receptor) | uterine wet weight, 100 μG + 1 μG 17β-estradiol [1] [mg] | uterine wet weight, 1 μG 17β-estradiol ([1]; 1 uG 17β-estradiol daily ip, positive control of each experiment)
Cc1c(-c2ccc(O)cc2)n(Cc2ccc(C#CCN3CCCC3)cc2)c2ccc(O)cc12 | 174 to 176 | – | – | – | – | – | –
O=C(c1ccc(OCCN2CCCCC2)cc1)c1c(-c2ccc(O)cc2)sc2cc(O)ccc12 [Raloxifene] | – | 5 | 47.5 | 43.2 | – | – | –
Cc1c(-c2ccc(O)cc2)n(Cc2ccc(C#CCN(C)C)cc2)c2ccc(O)cc12 [Example 4, 2-(4-Hydroxy-phenyl)-3-methyl-1-[4-(3-N,N-dimethyl-1-yl-prop-1-ynyl)-benzyl]-1H-indol-5-ol] | – | – | 56.0 | 84.0 | 53 | 77.6 | –
Cc1c(-c2ccc(O)cc2)n(Cc2ccc(C#CCN3CCCCC3)cc2)c2ccc(O)cc12 [Example 5, 2-(4-Hydroxy-phenyl)-3-methyl-1-[4-(3-piperidin-1-yl-prop-1-vinyl)-benzyl]-1H-indol-5-ol] | – | – | 55.6 | 71.3 | 23 | 66.8 | –
CC/C(=C(\c1ccccc1)c1ccc(OCCN(C)C)cc1)c1ccccc1 [Tamoxifen] | – | 0 | 69.6 | 71.4 | – | – | –
C[C@]12CC[C@@H]3c4ccc(O)cc4CC[C@H]3[C@@H]1CC[C@@H]2O [17β-estradiol] | – | – | – | – | – | – | 1 μG 17β-estradiol = 98.2 mg and 1 μG 17β-estradiol = 90.2 mg and 1 μg 17β-estradiol = 82.8 mg
